The values below come from PubChem BioAssay AID248 (DTP/NCI, 2004).

Where “and” joins values, the source holds several entries; their conditions need not be identical. Identical values can stand only once. Inconclusive results and toxic doses are left out.

The assay has as its system L1210 leukemia ip in BDF1 mice, survival T/C. Description: NCI In Vivo Anticancer Drug Screen. Data for tumor model L1210 Leukemia (intraperitoneal) in B6D2F1 (BDF1) mice. To be noted: endpoint: mean survival time, higher = longer survival. The essentials:
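Survival endpoint. Drug-treated group vs vehicle group, expressed as T divided by C. Tumor passaged by transplantation.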

[1] abbreviates: dose: 50.0 mg/kg/injection, schedule: Q04DX003 (ip), vehicle: Klucel (hydroxypropylcellulose) (HPC).
The mark [2] stands for this setting: dose: 100.0 mg/kg/injection, schedule: Q04DX003 (ip), vehicle: Klucel (hydroxypropylcellulose) (HPC).
The mark [3] stands for this setting: dose: 100.0 mg/kg/injection, schedule: Q04DX003 (ip), vehicle: saline.
Where [4] appears, read: dose: 200.0 mg/kg/injection, schedule: Q04DX003 (ip), vehicle: saline.
[5] abbreviates: dose: 400.0 mg/kg/injection, schedule: Q04DX003 (ip), vehicle: saline.
The mark [6] stands for this setting: dose: 100.0 mg/kg/injection, schedule: Q04DX002 (ip), vehicle: Klucel (hydroxypropylcellulose) (HPC).
The mark [7] stands for this setting: dose: 200.0 mg/kg/injection, schedule: Q04DX002 (ip), vehicle: Klucel (hydroxypropylcellulose) (HPC).
[8] abbreviates: dose: 100.0 mg/kg/injection, schedule: Q01DX009 (ip), vehicle: Klucel (hydroxypropylcellulose) (HPC).
[9] abbreviates: dose: 200.0 mg/kg/injection, schedule: Q01DX009 (ip), vehicle: Klucel (hydroxypropylcellulose) (HPC).
The mark [10] stands for this setting: dose: 400.0 mg/kg/injection, schedule: Q01DX009 (ip), vehicle: Klucel (hydroxypropylcellulose) (HPC).
[11] abbreviates: dose: 100.0 mg/kg/injection, schedule: Q04DX003 (ip), vehicle: saline with Tween-80.
Where [12] appears, read: dose: 200.0 mg/kg/injection, schedule: Q04DX003 (ip), vehicle: saline with Tween-80.
Setting [13] is: dose: 400.0 mg/kg/injection, schedule: Q04DX003 (ip), vehicle: saline with Tween-80.
The mark [14] stands for this setting: dose: 100.0 mg/kg/injection, schedule: Q01DX001 (ip), vehicle: saline.
Setting [15] is: dose: 200.0 mg/kg/injection, schedule: Q01DX001 (ip), vehicle: saline.
Setting [16] is: dose: 400.0 mg/kg/injection, schedule: Q01DX001 (ip), vehicle: saline.

Turning to `CCCOC(=O)C1(N)CCCC1`, the T/C runs as follows: (dose: 16.0 mg/kg/injection, schedule: Q01DX Z (ip), vehicle: carboxymethylcellulose (CMC)) 117 % of control; (dose: 31.0 mg/kg/injection, schedule: Q01DX Z (ip), vehicle: carboxymethylcellulose (CMC)) 119 % of control; (dose: 45.0 mg/kg/injection, schedule: Q01DX Z (ip), vehicle: saline) 114 % of control; (dose: 50.0 mg/kg/injection, schedule: Q01DX001 (ip), vehicle: Klucel (hydroxypropylcellulose) (HPC)) 98 % of control; under setting [1], 103 % of control; (dose: 62.0 mg/kg/injection, schedule: Q01DX Z (ip), vehicle: carboxymethylcellulose (CMC)) 120 % of control. Further, the T/C by setting is: (dose: 100.0 mg/kg/injection, schedule: Q01DX001 (ip), vehicle: Klucel (hydroxypropylcellulose) (HPC)) 106 % of control; (dose: 100.0 mg/kg/injection, schedule: Q01DX Z (ip), vehicle: saline) 121 % of control; under setting [2], 117 % of control; (dose: 148.0 mg/kg/injection, schedule: Q01DX Z (ip), vehicle: saline) 160 % of control; (dose: 150.0 mg/kg/injection, schedule: Q01DX Z (ip), vehicle: saline) 114 % of control; (dose: 200.0 mg/kg/injection, schedule: Q01DX001 (ip), vehicle: Klucel (hydroxypropylcellulose) (HPC)) 117 % of control and 118 % of control. Besides, the T/C is 110 % of control (dose: 336.0 mg/kg/injection, schedule: Q01DX Z (ip), vehicle: saline); 121 % of control (dose: 400.0 mg/kg/injection, schedule: Q04DX003 (ip), vehicle: Klucel (hydroxypropylcellulose) (HPC)); 89 % of control (dose: 500.0 mg/kg/injection, schedule: Q01DX Z (ip), vehicle: carboxymethylcellulose (CMC)); 116 % of control (dose: 504.0 mg/kg/injection, schedule: Q01DX Z (ip), vehicle: saline).
For the molecule `O=C(O)CNCc1ccc(Cl)c(Cl)c1`, the T/C (dose: 75.0 mg/kg/injection, schedule: Q01DX009 (ip), vehicle: saline) is 100 % of control; the T/C (dose: 100.0 mg/kg/injection, schedule: Q01DX009 (ip), vehicle: saline) was 97 % of control and 120 % of control; the T/C under setting [3] is 96 % of control; the T/C (dose: 150.0 mg/kg/injection, schedule: Q01DX009 (ip), vehicle: saline) is 99 % of control; the T/C (dose: 200.0 mg/kg/injection, schedule: Q01DX009 (ip), vehicle: saline) was 111 % of control; the T/C under setting [4] was 102 % of control. The T/C by setting is: (dose: 400.0 mg/kg/injection, schedule: Q01DX009 (ip), vehicle: saline) 95 % of control; under setting [5], 90 % of control.
Turning to `c1cc[c]([Sn]([c]2ccccc2)([c]2ccccc2)[CH]2CCCCC2)cc1`, the T/C under setting [3] was 89 % of control, the T/C under setting [4] was 93 % of control and the T/C under setting [5] is 89 % of control.
As for `CCCCCCCC(CC(=O)O)OC(=O)CC(CCCCCCC)OC1OC(C)C(O)C(O)C1OC1OC(C)C(O)C(O)C1O` (centres undefined), the T/C under setting [6] is 102 % of control and the T/C under setting [7] is 102 % of control.
Regarding `C/C(=N\NC(N)=S)c1ccccc1`, the T/C by setting is: (dose: 5.0 mg/kg/injection, schedule: Q01DX009 (ip), vehicle: Klucel (hydroxypropylcellulose) (HPC)) 97 % of control; (dose: 5.0 mg/kg/injection, schedule: Q04DX003 (ip), vehicle: Klucel (hydroxypropylcellulose) (HPC)) 97 % of control; (dose: 10.0 mg/kg/injection, schedule: Q01DX009 (ip), vehicle: Klucel (hydroxypropylcellulose) (HPC)) 110 % of control; (dose: 10.0 mg/kg/injection, schedule: Q04DX003 (ip), vehicle: Klucel (hydroxypropylcellulose) (HPC)) 103 % of control; (dose: 20.0 mg/kg/injection, schedule: Q01DX009 (ip), vehicle: Klucel (hydroxypropylcellulose) (HPC)) 105 % of control; (dose: 20.0 mg/kg/injection, schedule: Q04DX003 (ip), vehicle: Klucel (hydroxypropylcellulose) (HPC)) 98 % of control and 117 % of control. The T/C (dose: 30.0 mg/kg/injection, schedule: Q04DX003 (ip), vehicle: Klucel (hydroxypropylcellulose) (HPC)) is 95 % of control and the T/C (dose: 40.0 mg/kg/injection, schedule: Q04DX003 (ip), vehicle: Klucel (hydroxypropylcellulose) (HPC)) is 120 % of control.
Take `Cc1cc(Cl)cc(C)c1OC(=O)Nc1ccc(F)cc1`: the T/C runs as follows: under setting [8], 96 % of control; under setting [9], 95 % of control; under setting [10], 107 % of control.
Take `CN(C(=O)c1ccc([N+](=O)[O-])cc1)c1ccccc1`: the T/C (dose: 50.0 mg/kg/injection, schedule: Q01DX001 (ip), vehicle: carboxymethylcellulose (CMC)) is 100 % of control; the T/C (dose: 100.0 mg/kg/injection, schedule: Q01DX001 (ip), vehicle: carboxymethylcellulose (CMC)) is 118 % of control; the T/C under setting [8] is 103 % of control; the T/C under setting [6] is 93 % of control; the T/C (dose: 200.0 mg/kg/injection, schedule: Q01DX001 (ip), vehicle: carboxymethylcellulose (CMC)) is 108 % of control; the T/C under setting [9] is 96 % of control. In addition, the T/C under setting [7] is 90 % of control; the T/C (dose: 400.0 mg/kg/injection, schedule: Q01DX001 (ip), vehicle: carboxymethylcellulose (CMC)) is 96 % of control; the T/C under setting [10] was 100 % of control; the T/C (dose: 400.0 mg/kg/injection, schedule: Q04DX002 (ip), vehicle: Klucel (hydroxypropylcellulose) (HPC)) was 123 % of control.
`COC(=O)c1cc(Br)ccc1OCC(=O)Nc1ccccc1`: the T/C by setting is: under setting [11], 94 % of control; under setting [12], 94 % of control; under setting [13], 91 % of control.
Turning to `O=S(=O)(CC(Cl)c1ccc(Cl)cc1)c1ccccc1` (centres undefined), the T/C reads like this: under setting [14], 112 % of control; under setting [15], 114 % of control; under setting [16], 109 % of control.
Take `c1ccc2c(c1)Cc1cc3ccccc3nc1-2`: the T/C is 106 % of control under setting [11]; 98 % of control (dose: 200.0 mg/kg/injection, schedule: Q01DX009 (ip), vehicle: saline with Tween-80); 93 % of control under setting [12]; 90 % of control (dose: 400.0 mg/kg/injection, schedule: Q01DX009 (ip), vehicle: saline with Tween-80); 98 % of control under setting [13].
For the molecule `COc1ccc2cc(C(C)=O)ccc2c1`, the T/C (dose: 50.0 mg/kg/injection, schedule: Q01DX001 (ip), vehicle: saline) is 117 % of control; the T/C under setting [14] is 105 % of control; the T/C under setting [15] is 100 % of control; the T/C under setting [16] is 110 % of control.
Consider `O=C(O)c1cccnc1.[Cu+2]`, for which the T/C is, setting by setting: (dose: 9.5 mg/kg/injection, schedule: Q01DX001 (ip), vehicle: other) 97 % of control; (dose: 19.0 mg/kg/injection, schedule: Q01DX001 (ip), vehicle: other) 97 % of control; (dose: 38.0 mg/kg/injection, schedule: Q01DX001 (ip), vehicle: other) 100 % of control.
For `Cc1ccc(C(=O)Nc2ccc(OCCCc3c(N)nc(N)nc3N)cc2)cc1S(=O)(=O)F`, the T/C was 103 % of control (dose: 25.0 mg/kg/injection, schedule: Q04DX003 (ip), vehicle: Klucel (hydroxypropylcellulose) (HPC)); 97 % of control under setting [1]; 103 % of control under setting [2].
Turning to `CCCCCCCCCCCCC[n+]1ccc(C#N)cc1`, the T/C reads like this: (dose: 7.5 mg/kg/injection, schedule: Q04DX003 (ip), vehicle: saline) 101 % of control; (dose: 15.0 mg/kg/injection, schedule: Q04DX003 (ip), vehicle: saline) 98 % of control; (dose: 30.0 mg/kg/injection, schedule: Q04DX003 (ip), vehicle: saline) 101 % of control.
